According to publication PMC6094432, “Design, Synthesis and Evaluation of Substituted Aryl-2-Nitrovinyl Derivatives as Small Molecules Proteasome Inhibitors” (Iranian Journal of Pharmaceutical Research : IJPR, 2018):
Read-outs that look alike come from different tables or passages of the source.

Assays:
[1] = target: T1, 20S proteasome ChT-L activity (Homo sapiens, UniProt P28074); assay: Cell-based 20S proteasome ChT-L inhibition assay in MCF-7 cells
T1 construct: This assay measures the ChT-L protease activity in cultured cells; endogenous in cells; host or cells: MCF-7 and PC-3 cells
Description: (§1) Cell-based proteasome inhibition assay
(§2) The effect of the derivatives on the 20S proteasome activity was determined using the 20S proteasome activity assay kit from Sigma (USA). This assay measures the ChT-L protease activity in cultured cells and is based on the detection of the fluorophore R110 after cleavage from the labeled substrate LLVY-R110. MCF-7 and PC-3 cells were pretreated with different concentrations of corresponding compounds and proteasome activities were determined according to the manufacturer′s protocol. Proteasome activity generates strongly green fluorescent R110, which was monitored at an excitation wavelength of 480 nm and emission of […] on a microplate fluorescence reader. All data were calculated by subtracting the blank control.

[2] = target: T1, 20S proteasome ChT-L activity; assay: Cell-based 20S proteasome ChT-L inhibition assay in PC-3 cells
Description: as §1, §2

[3] = test system: MCF-7 cells; assay: Cell viability (MTT) assay, MCF-7; assay type: cell-based; conditions: Homo sapiens, read-out: Cell cytotoxicity assay IC50 MCF-7
Description: (§3) Human breast cancer (MCF-7), and human prostate cancer (PC-3) cells were cultured in their respective media supplemented with 10% fetal bovine serum (FBS). The cells were cultured at 1 × 10^4 cells per well, in a 96-well plate and incubated for 24-48 h to obtain cell attachments. Afterwards, the cells were treated with different concentrations of test compounds for 48 h and then incubated with 20 µL of 5 mg/mL 3-(4,5-dimethylthiazol-2-yl)-2,5-diphenyl tetrazolium bromide (MTT) solution for 4 h. After aspiration of the MTT solution, 100 µL of DMSO was added to each well to dissolve formazan crystals. The absorbance of each well was measured at the wavelength of 550 nm using an enzyme-linked immunosorbent assay reader. IC50 values were calculated from the curves generated by plotting the percentage of the viable cells versus the test concentration on a logarithmic scale using SigmaPlot 10.0 software.

[4] = test system: PC-3 cells; assay: Cell viability (MTT) assay, PC-3; assay type: cell-based; conditions: Homo sapiens, read-out: Cell cytotoxicity assay IC50 PC-3
Description: as §3

[5] = MCF7, MCF-7 cells, percent inhibition at 10 µM, ChT-L activity, LLVY-R110 substrate, read-out: 20S proteasome inhibition, Inhibition [%] MCF-7
[6] = MCF-7 cells, ChT-L activity, LLVY-R110 substrate
[7] = PC-3 cells, percent inhibition at 25 µM, ChT-L activity, LLVY-R110 substrate, read-out: 20S proteasome inhibition, Inhibition [%] PC-3
[8] = PC-3 cells, ChT-L activity, LLVY-R110 substrate
[9] = MCF7, MCF-7, MTT, 48 h treatment, mean ± SD of three independent experiments
[10] = PC-3, MTT, 48 h treatment, mean ± SD of three independent experiments

Compound `CC(C)C[C@H](NC(=O)[C@H](Cc1ccccc1)NC(=O)c1cnccn1)B(O)O` [Bortezomib, bortezomib, reference compound] has an inhibition at 10 µM ([1]; MCF7, read-out: 20S proteasome inhibition, Inhibition [%] MCF-7) of 86.7 ± 5.1%, an inhibition at 25 µM ([2]; PC-3, read-out: 20S proteasome inhibition, Inhibition [%] PC-3) of 74 ± 4.6% and an IC50 ([3]; MCF7, 48 h) of 0.04 ± 0.01 µM. For the same compound, the IC50 ([4]; PC-3, 48 h) was 0.26 ± 0.02 µM.

With `O=[N+]([O-])C=Cc1ccccc1` [Compound 1a, (2-nitrovinyl)benzene] the inhibition at 10 µM [1, 5] was 85.2 ± 5.9%, the IC50 [1, 6] was 3.67 ± 0.27 µM and the inhibition at 25 µM [2, 7] was 78.6 ± 3.2%. The IC50 [2, 8] was 38 ± 3.24 µM, the IC50 [3, 9] was 5.23 ± 0.17 µM and the IC50 [4, 10] was 39.9 ± 0.97 µM.

In the case of `O=[N+]([O-])C=Cc1ccc(Cl)cc1` [Compound 1b, 1-chloro-4-(2-nitrovinyl)benzene], the inhibition at 10 µM [1, 5] is reported as 93.9 ± 2.4%, the IC50 [1, 6] is reported as 5.63 ± 0.39 µM and the inhibition at 25 µM [2, 7] is reported as 84.3 ± 2.7%. It also gave an IC50 [2, 8] of 48 ± 5.39 µM, an IC50 [3, 9] of 7.11 ± 0.22 µM and an IC50 [4, 10] of 78.4 ± 3.22 µM.

Compound `Cc1ccc(C=C[N+](=O)[O-])cc1` [Compound 1c, 1-methyl-4-(2-nitrovinyl)benzene] has an inhibition at 10 µM [1, 5] of 88.9 ± 4.6%, an IC50 [1, 6] of 5.23 ± 0.15 µM and an inhibition at 25 µM [2, 7] of 80.1 ± 5.4%. It also gave an IC50 [2, 8] of 36 ± 2.14 µM, an IC50 [3, 9] of 9.63 ± 0.25 µM and an IC50 [4, 10] of 70.4 ± 4.33 µM.

Compound `COc1ccc(C=C[N+](=O)[O-])cc1` [Compound 1d, 1-methoxy-4-(2-nitrovinyl) benzene] has an inhibition at 10 µM [1, 5] of 89.6 ± 4.4%, an IC50 [1, 6] of 1.21 ± 0.07 µM and an inhibition at 25 µM [2, 7] of 84.5 ± 3.9%. For the same compound, the IC50 [2, 8] was 29.4 ± 2.91 µM, the IC50 [3, 9] was 2.2 ± 0.06 µM and the IC50 [4, 10] was 60.3 ± 5.11 µM.

`CN(C)c1ccc(C=C[N+](=O)[O-])cc1` [Compound 1e, N, N-dimethyl-4-(2-nitrovinyl)benzenamine] showed an IC50 [1, 6] greater than 50 µM, an IC50 [2, 8] greater than 50 µM and an IC50 [3, 9] of 43.9 ± 1.27 µM. For the same compound, the IC50 [4, 10] was 188 ± 10.3 µM.

`O=[N+]([O-])C(=Cc1ccccc1)CO` [Compound 2a, 2-Nitro-3-phenylprop-2-en-1-ol] showed an inhibition at 10 µM [1, 5] of 90.3 ± 5%, an IC50 [1, 6] of 1.7 ± 0.02 µM and an inhibition at 25 µM [2, 7] of 72.4 ± 2.2%. It also gave an IC50 [2, 8] of 21.7 ± 1.17 µM, an IC50 ([3]; MCF7, 48 h) of 2.4 ± 0.08 µM and an IC50 ([4]; PC-3, 48 h) of 29.27 ± 0.12 µM.

For `O=[N+]([O-])C(=Cc1ccc(Cl)cc1)CO` [Compound 2b, 2-Nitro-3-(4-chlorophenyl)prop-2-en-1-ol], the inhibition at 10 µM [1, 5] was 44.1 ± 2.8%, the IC50 [1, 6] was 10.3 ± 0.17 µM and the inhibition at 25 µM [2, 7] was 40.3 ± 1.9%. For the same compound, the IC50 [2, 8] was 22.02 ± 0.09 µM, the IC50 ([3]; MCF7, 48 h) was 17.34 ± 0.13 µM and the IC50 ([4]; PC-3, 48 h) was 20.79 ± 0.01 µM.

With `Cc1ccc(C=C(CO)[N+](=O)[O-])cc1` [Compound 2c, 2-Nitro-3-(4-tolyl)prop-2-en-1-ol] the inhibition at 10 µM [1, 5] was 93.4 ± 5.2%, the IC50 [1, 6] was 2.82 ± 0.06 µM and the melting point was 52 to 54 °C. It also gave an inhibition at 25 µM [2, 7] of 87 ± 4.1%, an IC50 [2, 8] of 25.9 ± 2.37 µM and an IC50 ([3]; MCF7, 48 h) of 5.08 ± 0.05 µM. It also gave an IC50 ([4]; PC-3, 48 h) of 46.6 ± 6.72 µM.

Work on `COc1ccc(C=C(CO)[N+](=O)[O-])cc1` [Compound 2d, 2-Nitro-3-(4-methoxyphenyl)prop-2-en-1-ol] yielded an inhibition at 10 µM [1, 5] of 85 ± 6.1%, an IC50 [1, 6] of 0.71 ± 0.01 µM and an inhibition at 25 µM [2, 7] of 86.3 ± 5%. For the same compound, the IC50 [2, 8] was 17.8 ± 1.05 µM, the IC50 ([3]; MCF7, 48 h) was 1.17 ± 0.04 µM and the IC50 ([4]; PC-3, 48 h) was 32.3 ± 2.04 µM.

In the case of `O=[N+]([O-])C(=Cc1ccccc1)Cc1ccccc1` [Compound 4a, 3-(phenyl)-2-nitroallylbenzene], the inhibition at 10 µM [1, 5] is reported as 54.9 ± 4.3%, the IC50 [1, 6] is reported as 7.56 ± 0.11 µM and the inhibition at 25 µM [2, 7] is reported as 42.7 ± 3.6%. The IC50 [2, 8] was 39.6 ± 16.3 µM, the IC50 ([3]; MCF7, 48 h) was 10.7 ± 0.16 µM and the IC50 ([4]; PC-3, 48 h) was 48.8 ± 2.71 µM.

For `O=[N+]([O-])C(=Cc1ccc(Cl)cc1)Cc1ccccc1` [Compound 4b, 3-(4-chlorophenyl)-2-nitroallylbenzene], the inhibition at 10 µM [1, 5] was 50.4 ± 3.9%, the IC50 [1, 6] was 11.1 ± 0.17 µM and the melting point was 98 to 100 °C. It also gave an inhibition at 25 µM [2, 7] of 63.9 ± 4.4%, an IC50 [2, 8] of 40.22 ± 0.07 µM and an IC50 ([3]; MCF7, 48 h) of 15.9 ± 0.2 µM. It also gave an IC50 ([4]; PC-3, 48 h) of 70.74 ± 0.08 µM.

`Cc1ccc(C=C(Cc2ccccc2)[N+](=O)[O-])cc1` [Compound 4c, 3-(4-methylphenyl)-2-nitroallylbenzene] gave an inhibition at 10 µM [1, 5] of 48.2 ± 2.8%, an IC50 [1, 6] of 9.92 ± 0.27 µM and a melting point of 105 to 107 °C. For the same compound, the inhibition at 25 µM [2, 7] was 50.8 ± 2.7%, the IC50 [2, 8] was 30.1 ± 3.74 µM and the IC50 ([3]; MCF7, 48 h) was 16.56 ± 0.12 µM. It also gave an IC50 ([4]; PC-3, 48 h) of 62.7 ± 4.21 µM.

Work on `COc1ccc(C=C(Cc2ccccc2)[N+](=O)[O-])cc1` [Compound 4d, 3-(4-methoxyphenyl)-2-nitroallylbenzene] yielded an inhibition at 10 µM [1, 5] of 60.4 ± 4.1%, an IC50 [1, 6] of 3.57 ± 0.13 µM and a melting point of 53 to 56 °C. For the same compound, the inhibition at 25 µM [2, 7] was 54.4 ± 3.3%, the IC50 [2, 8] was 42.8 ± 5.11 µM and the IC50 ([3]; MCF7, 48 h) was 4.72 ± 0.07 µM. It also gave an IC50 ([4]; PC-3, 48 h) of 79.6 ± 4.6 µM.

For `CN(C)c1ccc(C=C(Cc2ccccc2)[N+](=O)[O-])cc1` [Compound 4e, N, N-dimethyl-4-(2-nitro-3-phenylprop-1-enyl)benzenamine], the IC50 [1, 6] was greater than 50 µM, the melting point was 110 to 113 °C and the IC50 [2, 8] was greater than 50 µM. The IC50 ([3]; MCF7, 48 h) was 20.85 ± 0.09 µM and the IC50 ([4]; PC-3, 48 h) was 332 ± 12.3 µM.

Compound `Cc1ccc(C=C(CC(C)C)[N+](=O)[O-])cc1` [Compound 6a, 1-methyl-4-(4-methyl-2-nitropent-1-enyl)benzene] has an inhibition at 10 µM [1, 5] of 43.9 ± 0.98%, an IC50 [1, 6] of 13.7 ± 4.64 µM and an inhibition at 25 µM [2, 7] of 40.3 ± 1.2%. It also gave an IC50 [2, 8] of 36.1 ± 4.1 µM, an IC50 ([3]; MCF7, 48 h) of 24.08 ± 0.18 µM and an IC50 ([4]; PC-3, 48 h) of 73.1 ± 3.63 µM.

In the case of `COc1ccc(C=C(CC(C)C)[N+](=O)[O-])cc1` [Compound 6b, 1-methoxy-4-(4-methyl-2-nitropent-1-enyl)benzene], the inhibition at 10 µM [1, 5] is reported as 45.7 ± 3.6%, the IC50 [1, 6] is reported as 3.82 ± 0.15 µM and the inhibition at 25 µM [2, 7] is reported as 50.2 ± 3.5%. For the same compound, the IC50 [2, 8] was 20.5 ± 1.09 µM, the IC50 ([3]; MCF7, 48 h) was 5.27 ± 0.03 µM and the IC50 ([4]; PC-3, 48 h) was 60.07 ± 0.01 µM.
